According to patent US7138361B2, “Herbicidal heterocycles” (E. I. du Pont de Nemours and Company, priority 2000, dated 2006):

How the values were obtained:
Type in all cases: in vivo
Sunflower = test: Test C preemergence; conditions: Rate 125 g/ha, scale 0 to 100, 0 no effect, 100 complete control
[1] = test system: lambsquarters (Chenopodium album); test: Test B postemergence; conditions: 13 to 15 days
How it was run: (§1)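 Seeds were planted and sprayed preemergence with test chemical in a non-phytotoxic solvent mixture containing surfactant; postemergence plants (2 to 18 cm, 1- to 4-leaf stage) received the same formulation. Greenhouse hold 13 to 15 days, then visual rating versus untreated controls on a 0–100 scale (0 no effect, 100 complete control).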

corn (Zea mays) [2] = test: Test B postemergence; conditions: 13 to 15 days
How it was run: as §1

[3] = test system: crabgrass (Digitaria sanguinalis); test: Test B postemergence; conditions: 13 to 15 days
How it was run: as §1

[4] = test system: barnyardgrass (Echinochloa crus-galli); test: Test B postemergence; conditions: 13 to 15 days
How it was run: as §1

[5] = test system: cocklebur (Xanthium strumarium); test: Test B postemergence; conditions: 13 to 15 days
How it was run: as §1

[6] = test system: Surinam grass (Brachiaria decumbens); test: Test B postemergence; conditions: 13 to 15 days
How it was run: as §1

[7] = test system: giant foxtail (Setaria faberii); test: Test B postemergence; conditions: 13 to 15 days
How it was run: as §1

[8] = test system: wheat (Triticum aestivum); test: Test B postemergence; conditions: 13 to 15 days
How it was run: as §1

[9] = test system: morning glory (Ipomoea hederacea); test: Test B postemergence; conditions: 13 to 15 days
How it was run: as §1

[10] = test system: pigweed (Amaranthus retroflexus); test: Test B postemergence; conditions: 13 to 15 days
How it was run: as §1

wild oat (Avena fatua) = test: Test B postemergence; conditions: 13 to 15 days
How it was run: as §1

[11] = test system: blackgrass (Alopecurus myosuroides); test: Test B postemergence; conditions: 13 to 15 days
How it was run: as §1

[12] = test system: velvetleaf (Abutilon theophrasti); test: Test B postemergence; conditions: 13 to 15 days
How it was run: as §1

[13] = test system: lambsquarters (Chenopodium album); test: Test B preemergence
How it was run: as §1

corn (Zea mays) [14] = test: Test B preemergence
How it was run: as §1

rice (Oryza saliva) = test: Test B preemergence
How it was run: as §1

[15] = test system: crabgrass (Digitaria sanguinalis); test: Test B preemergence
How it was run: as §1

[16] = test system: barnyardgrass (Echinochloa crus-galli); test: Test B preemergence
How it was run: as §1

[17] = test system: cocklebur (Xanthium strumarium); test: Test B preemergence
How it was run: as §1

[18] = test system: Surinam grass (Brachiaria decumbens); test: Test B preemergence
How it was run: as §1

[19] = test system: giant foxtail (Setaria faberii); test: Test B preemergence
How it was run: as §1

[20] = test system: morning glory (Ipomoea hederacea); test: Test B preemergence
How it was run: as §1

[21] = test system: pigweed (Amaranthus retroflexus); test: Test B preemergence
How it was run: as §1

[22] = test system: velvetleaf (Abutilon theophrasti); test: Test B preemergence
How it was run: as §1

Nightshade = test: Test C preemergence; conditions: visual evaluation after 12 to 14 days
[23] = Rate 125 g/ha, scale 0 (no effect) to 100 (complete control)
[24] = Rate 500 g/ha, scale 0 to 100, 0 is no effect, 100 is complete control
[25] = Preemergence, Rate 500 g/ha, scale 0 to 100, 0 no effect, 100 complete control
[26] = preemergence, Rate 125 g/ha, scale 0 to 100, 0 no effect, 100 complete control
[27] = preemergence, Rate 125 g/ha, scale of 0 to 100 where 0 is no effect and 100 is complete control, 13 to 15 days

## O=C1C(n2ccc(C3CCC3)n2)SCN1c1cccc(OC(F)(F)F)c1 (stereo not drawn) [Compound 38]
Sunflower
  Plant response rating, Sunflower: 0
[1]; [23]
  Plant response rating, Lambsquarters: 80
[1]; [24]
  Plant response rating, Lambsquarters: 90
Corn (Zea mays) [2]; [23]
  Plant response rating, Corn: 0
Corn (Zea mays) [2]; [24]
  Plant response rating, Corn: 0
[3]; [23]
  Plant response rating, Crabgrass: 60
[3]; [24]
  Plant response rating, Crabgrass: 100
[4]; [23]
  Plant response rating, Barnyardgrass: 100
[4]; [24]
  Plant response rating, Barnyardgrass: 100
[5]; [23]
  Plant response rating, Cocklebur: 40
[5]; [24]
  Plant response rating, Cocklebur: 80
[6]; [23]
  Plant response rating, Surinam grass: 0
[6]; [24]
  Plant response rating, Surinam grass: 0
[7]; [23]
  Plant response rating, Foxtail, Giant: 30
[7]; [24]
  Plant response rating, Foxtail, Giant: 80
[8]; [23]
  Plant response rating, Wheat: 0
[8]; [24]
  Plant response rating, Wheat: 0
[9]; [23]
  Plant response rating, Morningglory: 10
[9]; [24]
  Plant response rating, Morningglory: 20
[10]; [23]
  Plant response rating, Pigweed: 60
[10]; [24]
  Plant response rating, Pigweed: 80
Wild oat (Avena fatua); [23]
  Plant response rating, Wild Oat: 0
Wild oat (Avena fatua); [24]
  Plant response rating, Wild Oat: 0
[11]; [23]
  Plant response rating, Blackgrass: 0
[11]; [24]
  Plant response rating, Blackgrass: 0
[12]; [23]
  Plant response rating, Velvetleaf: 0
[12]; [24]
  Plant response rating, Velvetleaf: 70
[13]; [25]
  Plant response rating, Lambsquarters: 100
[13]; [26]
  Plant response rating, Lambsquarters: 100
Corn (Zea mays) [14]; [25]
  Plant response rating, Corn: 0
Corn (Zea mays) [14]; [26]
  Plant response rating, Corn: 0
Rice (Oryza saliva); [25]
  Plant response rating, Rice: 10
[15]; [25]
  Plant response rating, Crabgrass: 100
[15]; [26]
  Plant response rating, Crabgrass: 0
[16]; [25]
  Plant response rating, Barnyardgrass: 100
[16]; [26]
  Plant response rating, Barnyardgrass: 70
[17]; [25]
  Plant response rating, Cocklebur: 0
[18]; [25]
  Plant response rating, Surinam grass: 60
[18]; [26]
  Plant response rating, Surinam grass: 0
[19]; [25]
  Plant response rating, Foxtail, Giant: 100
[19]; [26]
  Plant response rating, Foxtail, Giant: 0
[20]; [25]
  Plant response rating, Morningglory: 0
[21]; [25]
  Plant response rating, Pigweed: 100
[22]; [25]
  Plant response rating, Velvetleaf: 0
Nightshade; Rate 250 g/ha
  Plant response rating (0 to 100), Nightshade: 60

## CC1(c2ccn(C3OCN(c4cccc(C(F)(F)F)c4)C3=O)n2)CC1 (stereo not drawn) [Compound 62]
Sunflower
  Plant response rating, Sunflower: 0
[1]; [23]
  Plant response rating, Lambsquarters: 0
[1]; [24]
  Plant response rating, Lambsquarters: 60
Corn (Zea mays) [2]; [23]
  Plant response rating, Corn: 0
Corn (Zea mays) [2]; [24]
  Plant response rating, Corn: 0
[3]; [23]
  Plant response rating, Crabgrass: 0
[3]; [24]
  Plant response rating, Crabgrass: 0
[4]; [23]
  Plant response rating, Barnyardgrass: 0
[4]; [24]
  Plant response rating, Barnyardgrass: 0
[5]; [23]
  Plant response rating, Cocklebur: 0
[5]; [24]
  Plant response rating, Cocklebur: 0
[6]; [23]
  Plant response rating, Surinam grass: 0
[6]; [24]
  Plant response rating, Surinam grass: 0
[7]; [23]
  Plant response rating, Foxtail, Giant: 0
[7]; [24]
  Plant response rating, Foxtail, Giant: 0
[8]; [23]
  Plant response rating, Wheat: 0
[8]; [24]
  Plant response rating, Wheat: 0
[9]; [23]
  Plant response rating, Morningglory: 0
[9]; [24]
  Plant response rating, Morningglory: 0
[10]; [23]
  Plant response rating, Pigweed: 0
[10]; [24]
  Plant response rating, Pigweed: 40
Wild oat (Avena fatua); [23]
  Plant response rating, Wild Oat: 0
Wild oat (Avena fatua); [24]
  Plant response rating, Wild Oat: 0
[11]; [23]
  Plant response rating, Blackgrass: 0
[11]; [24]
  Plant response rating, Blackgrass: 0
[12]; [23]
  Plant response rating, Velvetleaf: 0
[12]; [24]
  Plant response rating, Velvetleaf: 0
[13]; [25]
  Plant response rating, Lambsquarters: 100
[13]; [27]
  Plant response rating, Lambsquarters: 100
Corn (Zea mays) [14]; [25]
  Plant response rating, Corn: 0
Corn (Zea mays) [14]; [27]
  Plant response rating, Corn: 0
Rice (Oryza saliva); [25]
  Plant response rating, Rice: 30
Rice (Oryza saliva); [27]
  Plant response rating, Rice: 0
[15]; [25]
  Plant response rating, Crabgrass: 90
[15]; [27]
  Plant response rating, Crabgrass: 0
[16]; [25]
  Plant response rating, Barnyardgrass: 90
[16]; [27]
  Plant response rating, Barnyardgrass: 0
[17]; [25]
  Plant response rating, Cocklebur: 0
[17]; [27]
  Plant response rating, Cocklebur: 0
[18]; [25]
  Plant response rating, Surinam grass: 0
[18]; [27]
  Plant response rating, Surinam grass: 0
[19]; [25]
  Plant response rating, Foxtail, Giant: 80
[19]; [27]
  Plant response rating, Foxtail, Giant: 0
[20]; [25]
  Plant response rating, Morningglory: 0
[20]; [27]
  Plant response rating, Morningglory: 0
[21]; [25]
  Plant response rating, Pigweed: 100
[21]; [27]
  Plant response rating, Pigweed: 100
[22]; [25]
  Plant response rating, Velvetleaf: 0
[22]; [27]
  Plant response rating, Velvetleaf: 0
Nightshade; Rate 250 g/ha
  Plant response rating (0 to 100), Nightshade: 0
Nightshade; Rate 500 g/ha
  Plant response rating (0 to 100), Nightshade: 0
